Data as given in article PMC5664251, “Synthesis and Cytotoxic Evaluation of Steroidal Copper (Cu (II)) Complexes” (Bioinorganic Chemistry and Applications, 2017).
pIC50: −log10 of the molar value.

How the values were obtained:
Assay type in all cases: cell-based
[1] = MTT cytotoxicity assay, 293T normal cells; settings: human, HEK-293T normal kidney epithelial cells, mean of three independent determinations
Protocol: (§1) Melting points were determined on an X4 apparatus (Beijing Tech Instrument Co. Ltd., Beijing, China) and were uncorrected. The ^1H and ^13C NMR spectra were recorded in CDCl3 on a Bruker AV-600 spectrometer at working frequencies of 600 and 150 MHz and a Bruker AV-300 spectrometer at working frequencies of 300 and 75 MHz, respectively. Chemical shifts are expressed in parts per million (δ) values and coupling constants (J) in Hertz. Infrared spectra were measured with a Thermo Scientific Nicolet IS-10 Spectrophotometer (Thermo Scientific, USA). HREIMS was measured on an Agilent 6210 TOFMS instrument (Agilent Technologies, USA). The cell proliferation assay was undertaken by a MTT method using 96-well plates on a […] MK3 analysis spectrometer (Thermo Scientific, Shanghai, China).
(§2) The detailed procedure had been reported in our previous work.

[2] = test system: HeLa (human cervical carcinoma); experiment: MTT antiproliferative/cytotoxicity assay, HeLa; settings: mean of three independent determinations
Protocol: as §1, §2

[3] = test system: Bel-7404 (human liver carcinoma); experiment: MTT antiproliferative/cytotoxicity assay, Bel-7404; settings: mean of three independent determinations
Protocol: as §1, §2

## CC(=O)Oc1ccc2c(c1)CCC1C2CCC2(C)C(=NNC(N)=S)CCC12 (centres unmarked) [Compound 2]
[1]
  pIC50: < 3.70
[2]
  pIC50: 4.38
[3]
  pIC50: < 3.70

## CC12CCC3c4ccc(O)cc4CCC3C1CCC2=NNC(N)=S (centres unmarked) [Compound 1]
[2]
  pIC50: 4.47
[3]
  pIC50: 4.72
